Measurements as given in ChEMBL document CHEMBL4376834, “Discovery of 4H-Chromen-4-one Derivatives as a New Class of Selective Rho Kinase (ROCK) Inhibitors, which Showed Potent Activity in ex Vivo Diabetic Retinopathy Models” (J Med Chem, 2019).

Key:
eIF-2-alpha kinase GCN2 = eIF-2-alpha kinase GCN2 (Homo sapiens, UniProt Q9P2K8, E556G); assay: Inhibition of recombinant full length human GCN2 E556G mutant using RSRSRSRSRSRSR as substrate after 40 mins in presence of [gamma-33ATP] by radiometric scintillation counting analysis
[1] = target: Serine/threonine-protein kinase 10 (Homo sapiens, UniProt O94804); assay: Inhibition of recombinant human LOK (1 to 348 residues) using RLGRDKYKTLRQI as substrate after 40 mins in presence of [gamma-33ATP] by radiometric scintillation counting analysis
Serine/threonine-protein kinase 10, sequence (O94804 whole entry, the tested form may be a part): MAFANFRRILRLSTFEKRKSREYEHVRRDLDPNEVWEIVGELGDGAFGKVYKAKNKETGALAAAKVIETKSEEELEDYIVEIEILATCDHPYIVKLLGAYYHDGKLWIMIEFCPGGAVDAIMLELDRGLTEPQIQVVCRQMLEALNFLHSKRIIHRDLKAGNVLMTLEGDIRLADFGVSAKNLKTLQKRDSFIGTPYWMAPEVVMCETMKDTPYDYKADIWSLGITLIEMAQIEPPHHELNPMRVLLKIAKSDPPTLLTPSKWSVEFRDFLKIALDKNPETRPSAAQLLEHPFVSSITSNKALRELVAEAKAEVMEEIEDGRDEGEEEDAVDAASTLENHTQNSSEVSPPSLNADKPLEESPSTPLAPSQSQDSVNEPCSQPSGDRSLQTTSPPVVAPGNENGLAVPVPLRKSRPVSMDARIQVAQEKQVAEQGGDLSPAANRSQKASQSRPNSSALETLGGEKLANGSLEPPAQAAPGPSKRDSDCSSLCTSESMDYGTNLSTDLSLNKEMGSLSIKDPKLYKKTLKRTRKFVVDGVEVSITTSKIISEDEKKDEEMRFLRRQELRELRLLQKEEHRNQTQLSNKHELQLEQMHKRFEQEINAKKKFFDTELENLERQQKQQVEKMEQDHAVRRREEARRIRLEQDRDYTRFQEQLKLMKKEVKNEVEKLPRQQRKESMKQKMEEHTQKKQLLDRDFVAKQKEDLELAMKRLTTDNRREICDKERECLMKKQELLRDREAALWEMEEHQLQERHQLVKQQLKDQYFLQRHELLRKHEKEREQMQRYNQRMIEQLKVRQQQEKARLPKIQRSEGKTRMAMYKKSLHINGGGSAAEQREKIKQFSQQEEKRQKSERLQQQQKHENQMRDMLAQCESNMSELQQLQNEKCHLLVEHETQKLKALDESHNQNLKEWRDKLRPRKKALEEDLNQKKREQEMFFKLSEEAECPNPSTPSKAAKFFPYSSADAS

[2] = target: MAP/microtubule affinity-regulating kinase 3 (Homo sapiens, UniProt P27448); assay: Inhibition of recombinant full length human MARK3 using KKKVSRSGLYRSP as substrate incubated for 40 mins in presence of [gamma-33ATP by radiometric scintillation counting analysis
[3] = target: Dual specificity mitogen-activated protein kinase kinase 7 (Homo sapiens, UniProt O14733); assay: Inhibition of recombinant human MKK7 (2 to end residues) using inactive JNK1a1 as substrate incubated for 40 mins by radiometric scintillation counting analysis
[4] = target: Calcium/calmodulin-dependent protein kinase type II subunit delta (Homo sapiens, UniProt Q13557); assay: Inhibition of recombinant full length human CaMK2delta using calmodulin as substrate incubated for 40 mins in presence of [gamma-33ATP] by radiometric scintillation counting analysis
[5] = Inhibition of recombinant human MAPKAPK2 A399G mutant (46 to end residues) using KKLNRTLSVA as substrate incubated for 40 mins in presence of [gamma-33ATP by radiometric scintillation counting analysis
[6] = target: Inhibitor of nuclear factor kappa-B kinase subunit alpha (Homo sapiens, UniProt O15111); assay: Inhibition of recombinant full length human IKKalpha using peptide substrate after 40 mins by [gamma-33ATP]by radiometric scintillation counting analysis
Inhibitor of nuclear factor kappa-B kinase subunit alpha, sequence (O15111 whole entry): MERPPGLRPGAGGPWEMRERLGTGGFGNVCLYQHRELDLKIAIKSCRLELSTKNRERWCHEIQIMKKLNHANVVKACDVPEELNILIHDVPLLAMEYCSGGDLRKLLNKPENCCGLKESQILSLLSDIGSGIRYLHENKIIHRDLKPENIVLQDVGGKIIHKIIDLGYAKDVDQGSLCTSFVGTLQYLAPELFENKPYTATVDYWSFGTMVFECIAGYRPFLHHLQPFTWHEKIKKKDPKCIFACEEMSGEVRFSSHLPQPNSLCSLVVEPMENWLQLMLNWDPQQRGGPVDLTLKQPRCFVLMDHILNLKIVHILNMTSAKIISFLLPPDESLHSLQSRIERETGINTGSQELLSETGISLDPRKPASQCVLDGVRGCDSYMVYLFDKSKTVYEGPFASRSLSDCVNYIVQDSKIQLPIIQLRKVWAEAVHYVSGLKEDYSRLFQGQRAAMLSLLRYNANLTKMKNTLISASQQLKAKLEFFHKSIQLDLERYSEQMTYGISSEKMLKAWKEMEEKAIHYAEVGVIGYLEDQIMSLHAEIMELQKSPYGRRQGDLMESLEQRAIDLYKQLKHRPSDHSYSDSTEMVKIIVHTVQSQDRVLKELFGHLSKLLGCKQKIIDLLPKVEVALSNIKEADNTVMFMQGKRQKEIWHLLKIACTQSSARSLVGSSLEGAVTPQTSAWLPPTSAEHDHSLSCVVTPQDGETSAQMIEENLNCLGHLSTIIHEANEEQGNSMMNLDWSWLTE

[7] = target: Protein kinase C epsilon type (Homo sapiens, UniProt Q02156); assay: Inhibition of recombinant human PKCepsilon (2 to end residues) using ERMRPRKRQGSVRR as substrate incubated for 40 mins in presence of [gamma33P]ATP by radiometric scintillation counting analysis
Protein kinase C epsilon type, sequence (Q02156 whole entry): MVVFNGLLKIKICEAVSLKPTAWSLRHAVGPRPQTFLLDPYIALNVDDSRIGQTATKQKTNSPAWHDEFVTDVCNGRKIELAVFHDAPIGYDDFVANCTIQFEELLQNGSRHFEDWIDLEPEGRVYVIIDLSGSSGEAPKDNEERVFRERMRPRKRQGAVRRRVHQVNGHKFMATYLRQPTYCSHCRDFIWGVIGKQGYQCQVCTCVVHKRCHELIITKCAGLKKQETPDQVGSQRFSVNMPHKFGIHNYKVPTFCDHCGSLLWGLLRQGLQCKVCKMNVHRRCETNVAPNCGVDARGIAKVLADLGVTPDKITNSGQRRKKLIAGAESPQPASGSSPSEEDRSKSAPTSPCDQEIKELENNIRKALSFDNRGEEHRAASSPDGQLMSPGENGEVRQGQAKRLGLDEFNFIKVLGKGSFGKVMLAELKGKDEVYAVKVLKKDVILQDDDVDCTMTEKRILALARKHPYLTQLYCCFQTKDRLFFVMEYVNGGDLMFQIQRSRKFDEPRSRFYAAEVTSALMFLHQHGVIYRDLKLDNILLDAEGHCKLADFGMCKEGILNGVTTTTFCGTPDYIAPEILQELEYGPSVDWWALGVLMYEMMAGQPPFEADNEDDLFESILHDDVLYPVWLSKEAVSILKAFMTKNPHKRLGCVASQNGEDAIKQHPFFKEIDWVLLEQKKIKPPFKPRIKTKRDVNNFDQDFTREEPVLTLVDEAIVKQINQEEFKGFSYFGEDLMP

Ephrin type-B receptor 1 = Ephrin type-B receptor 1 (Homo sapiens, UniProt P54762); assay: Inhibition of recombinant human EphB1 (564 to end residues) using […] as substrate after 40 mins in presence of [gamma-33ATP] by radiometric scintillation counting analysis
[8] = target: Epidermal growth factor receptor (Homo sapiens, UniProt P00533, T790M); assay: Inhibition of recombinant human EGFR T790M mutant (696 to end residues) using poly(Glu, Tyr) 4:1 as substrate after 40 mins in presence of [gamma-33ATP] by radiometric scintillation counting analysis
Tau-tubulin kinase 2 = Tau-tubulin kinase 2 (Homo sapiens, UniProt Q6IQ55); assay: Inhibition of recombinant human TTBK2 (1 to331 residues) using casein as substrate incubated for 40 mins in presence of [gamma33P]ATP by radiometric scintillation counting analysis
[9] = target: Macrophage colony-stimulating factor 1 receptor (Homo sapiens, UniProt P07333, Y969C); assay: Inhibition of recombinant human FMS Y969C mutant (538 to end residues) using EEEEYEEEEEEYY as substrate after 40 mins in presence of [gamma-33ATP] by radiometric scintillation counting analysis
[10] = target: Proto-oncogene tyrosine-protein kinase receptor Ret (Homo sapiens, UniProt P07949); assay: Inhibition of recombinant human Ret (658 to end residues) using KKKSPGEYVNIEF as substrate incubated for 40 mins in presence of [gamma33P]ATP by radiometric scintillation counting analysis
[11] = target: Calcium/calmodulin-dependent protein kinase kinase 1 (Homo sapiens, UniProt Q8N5S9); assay: Inhibition of recombinant full length human CaMKK1 using calmodulin as substrate incubated for 40 mins in presence of [gamma-33ATP] by radiometric scintillation counting analysis
[12] = target: Serine-protein kinase ATM (Homo sapiens, UniProt Q13315); assay: Inhibition of recombinant full-length human ATM using GST-cMyc-p53 as substrate measured after 40 mins by ELISA
[13] = target: Serine/threonine-protein kinase PLK2 (Homo sapiens, UniProt Q9NYY3); assay: Inhibition of recombinant human SNK (65 to 409 residues) using casein as substrate incubated for 40 mins in presence of [gamma33P]ATP by radiometric scintillation counting analysis
Serine/threonine-protein kinase PLK2, sequence (Q9NYY3 whole entry, the tested form may be a part): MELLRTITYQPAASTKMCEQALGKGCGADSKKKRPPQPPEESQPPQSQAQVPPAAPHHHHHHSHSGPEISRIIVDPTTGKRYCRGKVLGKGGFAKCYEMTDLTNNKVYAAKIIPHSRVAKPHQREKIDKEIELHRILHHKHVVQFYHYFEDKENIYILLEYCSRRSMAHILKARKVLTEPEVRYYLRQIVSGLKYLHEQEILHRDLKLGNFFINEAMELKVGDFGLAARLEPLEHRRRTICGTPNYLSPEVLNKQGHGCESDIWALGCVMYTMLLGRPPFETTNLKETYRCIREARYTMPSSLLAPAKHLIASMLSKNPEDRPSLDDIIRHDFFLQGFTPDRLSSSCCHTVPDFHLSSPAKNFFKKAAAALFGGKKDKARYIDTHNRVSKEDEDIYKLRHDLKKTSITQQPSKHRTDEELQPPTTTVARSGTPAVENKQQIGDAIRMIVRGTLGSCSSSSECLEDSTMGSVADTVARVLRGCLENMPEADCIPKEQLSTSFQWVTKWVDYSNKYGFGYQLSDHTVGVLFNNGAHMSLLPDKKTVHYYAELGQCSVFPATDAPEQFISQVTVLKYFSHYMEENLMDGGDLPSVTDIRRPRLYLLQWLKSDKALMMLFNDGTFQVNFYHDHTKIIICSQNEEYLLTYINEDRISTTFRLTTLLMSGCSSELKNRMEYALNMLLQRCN

[14] = target: Calcium/calmodulin-dependent protein kinase type II subunit gamma (Homo sapiens, UniProt Q13555); assay: Inhibition of recombinant human CaMK2gamma (1 to 330 residues) using calmodulin as substrate incubated for 40 mins in presence of [gamma-33ATP] by radiometric scintillation counting analysis
Calcium/calmodulin-dependent protein kinase type II subunit gamma, sequence (Q13555 whole entry, the tested form may be a part): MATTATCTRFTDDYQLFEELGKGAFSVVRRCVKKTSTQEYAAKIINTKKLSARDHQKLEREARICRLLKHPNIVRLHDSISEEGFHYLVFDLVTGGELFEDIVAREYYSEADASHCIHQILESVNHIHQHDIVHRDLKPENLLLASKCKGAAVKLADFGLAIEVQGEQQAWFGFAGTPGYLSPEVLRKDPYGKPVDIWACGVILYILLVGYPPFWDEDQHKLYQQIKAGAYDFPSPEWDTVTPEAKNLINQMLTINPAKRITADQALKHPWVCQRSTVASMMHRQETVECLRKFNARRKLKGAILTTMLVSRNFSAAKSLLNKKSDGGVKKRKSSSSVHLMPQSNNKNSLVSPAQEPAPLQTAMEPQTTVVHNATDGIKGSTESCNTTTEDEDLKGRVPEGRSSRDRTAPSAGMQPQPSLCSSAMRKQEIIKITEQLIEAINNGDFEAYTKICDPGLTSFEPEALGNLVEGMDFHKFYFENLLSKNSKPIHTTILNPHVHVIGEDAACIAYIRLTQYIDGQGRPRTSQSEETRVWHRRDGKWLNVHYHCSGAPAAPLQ

[15] = target: Myosin light chain kinase, smooth muscle (Homo sapiens, UniProt Q15746); assay: Inhibition of recombinant human MLCK (1425 to 1771 residues) using […] as substrate incubated for 40 mins in presence of [gamma-33ATP by radiometric scintillation counting analysis
[16] = target: cGMP-dependent protein kinase 2 (Homo sapiens, UniProt Q13237); assay: Inhibition of recombinant full-length human PRKG2 using KKLRRTLSFAEPG as substrate incubated for 40 mins in presence of [gamma33P]ATP by radiometric scintillation counting analysis
[17] = Inhibition of recombinant human Plk4 S34T mutant (1 to 273 residues) using casein as substrate incubated for 40 mins in presence of [gamma33P]ATP by radiometric scintillation counting analysis
[18] = target: Protein kinase C gamma type (Homo sapiens, UniProt P05129); assay: Inhibition of recombinant full-length human PKCgamma using histone H1 as substrate incubated for 40 mins in presence of [gamma33P]ATP by radiometric scintillation counting analysis
[19] = target: Wee1-like protein kinase 2 (Homo sapiens, UniProt P0C1S8); assay: Inhibition of recombinant full length human WEE1b using LSNLYHQGKFLQTFCGSPLYRRR as substrate incubated for 120 mins in presence of [gamma33P]ATP by radiometric scintillation counting analysis
Wee1-like protein kinase 2, sequence (P0C1S8 whole entry): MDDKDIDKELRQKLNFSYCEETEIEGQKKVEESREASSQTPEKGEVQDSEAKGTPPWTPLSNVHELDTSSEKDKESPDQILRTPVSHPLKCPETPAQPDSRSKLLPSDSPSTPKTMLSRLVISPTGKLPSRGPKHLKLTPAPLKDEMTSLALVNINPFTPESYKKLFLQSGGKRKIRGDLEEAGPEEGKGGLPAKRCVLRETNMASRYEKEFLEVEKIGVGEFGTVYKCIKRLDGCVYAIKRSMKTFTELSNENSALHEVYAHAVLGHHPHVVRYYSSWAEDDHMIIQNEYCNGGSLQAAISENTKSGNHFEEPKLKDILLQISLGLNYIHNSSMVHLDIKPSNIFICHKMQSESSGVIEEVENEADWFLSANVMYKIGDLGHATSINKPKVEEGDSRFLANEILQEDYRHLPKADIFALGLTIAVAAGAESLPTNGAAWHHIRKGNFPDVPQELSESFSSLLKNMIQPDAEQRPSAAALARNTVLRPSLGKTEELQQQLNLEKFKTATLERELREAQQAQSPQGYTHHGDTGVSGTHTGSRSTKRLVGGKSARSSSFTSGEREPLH

[20] = target: Proto-oncogene tyrosine-protein kinase receptor Ret (Homo sapiens, UniProt P07949, V804L); assay: Inhibition of recombinant human Ret V804L mutant (658 to end residues) using KKKVSRSGLYRSP as substrate incubated for 40 mins in presence of [gamma33P]ATP by radiometric scintillation counting analysis
[21] = target: Fibroblast growth factor receptor 2 (Homo sapiens, UniProt P21802, N549H); assay: Inhibition of recombinant human FGFR2 N549H mutant (456 to 765 residues) using GGEEEEYFELVKK as substrate after 40 mins in presence of [gamma-33ATP] by radiometric scintillation counting analysis
[22] = target: Serine/threonine-protein kinase ULK3 (Homo sapiens, UniProt Q6PHR2); assay: Inhibition of recombinant human full length ULK3 using casein as substrate incubated for 40 mins in presence of [gamma33P]ATP by radiometric scintillation counting analysis
Serine/threonine-protein kinase ULK3, sequence (Q6PHR2 whole entry): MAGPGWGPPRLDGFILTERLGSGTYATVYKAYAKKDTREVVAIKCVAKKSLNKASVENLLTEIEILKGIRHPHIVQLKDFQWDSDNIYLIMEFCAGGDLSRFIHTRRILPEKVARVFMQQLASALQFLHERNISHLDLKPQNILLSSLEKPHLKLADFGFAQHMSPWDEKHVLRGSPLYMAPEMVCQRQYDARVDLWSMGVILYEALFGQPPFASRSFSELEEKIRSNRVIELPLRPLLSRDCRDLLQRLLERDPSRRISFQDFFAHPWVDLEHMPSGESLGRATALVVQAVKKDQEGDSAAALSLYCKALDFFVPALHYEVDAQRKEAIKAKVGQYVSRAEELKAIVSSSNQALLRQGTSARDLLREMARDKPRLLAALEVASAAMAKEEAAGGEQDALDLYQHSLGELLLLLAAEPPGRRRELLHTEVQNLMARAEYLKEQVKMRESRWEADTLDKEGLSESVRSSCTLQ

[23] = Half life in rat liver microsomes measured upto 45 mins in presence of NADPH by LC-MS analysis; type: ADME, Microsome

In the case of `CN(C)c1ccc(C(=O)Nc2cccc(NC(=O)COc3ccc4c(=O)ccoc4c3)c2)cc1`, the IC50 (eIF-2-alpha kinase GCN2) is reported as greater than 10 µM, the IC50 [1] is reported as greater than 10 µM and the IC50 [2] is reported as greater than 10 µM. The IC50 [3] was greater than 10 µM, the IC50 [4] was greater than 10 µM and the IC50 [5] was greater than 10 µM. It also gave an IC50 [6] greater than 10 µM, an IC50 [7] greater than 10 µM and an IC50 (Ephrin type-B receptor 1) greater than 10 µM. The IC50 [8] was greater than 10 µM, the IC50 (Tau-tubulin kinase 2) was greater than 10 µM and the IC50 [9] was greater than 10 µM. It also gave an IC50 [10] greater than 10 µM, an IC50 [11] greater than 10 µM and an IC50 [12] greater than 10 µM. It also gave an IC50 [13] greater than 10 µM, an IC50 [14] greater than 10 µM and an IC50 [15] greater than 10 µM. It also gave an IC50 [16] greater than 10 µM, an IC50 [17] greater than 10 µM and an IC50 [18] greater than 10 µM. It also gave an IC50 [19] greater than 10 µM, an IC50 [20] greater than 10 µM and an IC50 [21] greater than 10 µM. It also gave an IC50 [22] greater than 10 µM and a half-life [23] of 1.1 min.
